From patent publication US11576892B2, “Benzopyran derivatives and uses thereof” (Novation Pharmaceuticals Inc., priority 2015, dated 2023)

Columns and labels:
IL-6 mRNA [1] = assay: mRNA stability reporter gene (luciferase) assay, IL-6; assay type: cell-based; conditions: 24 h
Procedure: (§1) The basic principle of a reporter gene assay for determining compounds that destabilize mRNA is described in detail in WO 00/39314. A number of these assays for various drug targets have been developed and were tested with the compounds described in this disclosure. For THP-1 cells, compound is added at the time of the addition of LPS and luciferase measurements are taken 24 hours later or as indicated. For other cell lines, cells were plated in 96 well plates at 5*10^5 cells per 100 ul per well and incubated over night at 37° C. Compounds were then added and luciferase activity was measured after 24 hours. The activity was compared to other mRNA stability assays established for a range of other drug targets and found to be specific for IL-6, IL-12p40 and IL-23p19. Luciferase activity in the IL-6, IL-12 and IL-23 assays was inhibited by 10 μM benzopyran derivatives by >40% (Table IV).

IL-4 = assay: LPS-induced cytokine release in mice, serum IL-4; assay type: in vivo; conditions: 100 mg/kg pre-treatment; serum 4 h post LPS; CD-1 mouse
Procedure: (§2) Compounds were evaluated on intra-peritoneal LPS-induced cytokine release measured in serum in the CD-1 mouse. Vehicle, Test item and positive control were administered 1 h before LPS injection as well 30 min post LPS injection (except as otherwise varied herein). In serum samples collected at 4 h post LPS injection, following cytokines were measured by multiplex on MSD 10 V-plex platform: TNF-alpha, IFN-gamma, IL-1beta, IL-2, IL-4, IL-5, IL-6, IL-10, IL-12, KC/GRO. All cytokines except IL-5 were induced by LPS injection (compared with saline injection).
(§3) Serum samples collected at 4h post LPS challenge were analyzed in duplicate wells using multiplex on MSD 10 V-plex platform. […] FIG. 1: Effect of test compounds 333 (TI1) and 1781 (TI2) on IFN-gamma levels in serum of LPS treated mice. FIG. 2: Effect of test compounds 333 (TI1) and 1781 (TI2) on IFN-gamma levels in serum of LPS treated mice (values of individual animals)

[2] = test system: IL-1β release from THP 1 cells; assay: IL-1β release from THP 1 cells measured by ELISA; assay type: cell-based, human; conditions: IFNγ/LPS-stimulated THP 1 cells
Procedure: (§4) The THP 1 cell line is generally available and is described by Tsuchia et. al. Tsuchiya, Yamabe et al. (1980). Establishment and characterization of a human acute monocytic leukemia cell line (THP-1). Int J Cancer. 26: 171-176.
(§5) 900 μl THP 1 cells (0.5×10^6 cells) together with 100 Uγ interferon/0.9 ml RPMI 1640 medium (containing 2 mM L glutamine and 5% heat inactivated fetal calf serum) are pipetted into 24-well culture plates. 100 μl of the compound to be tested are then added. After 3 hours at 37° C. in 5% CO2/95% air, 10 μl lipopolysaccharide (LPS) 500 μg/ml is added and the incubation continued for a further 24 hours. Appropriate controls (with and without stimulus, solvent) are also included. The media are then removed and clarified by centrifugation at 1000 g for 10 min. Samples are stored at […] until the determinations can be made. IL 1β, IL 6 IL-12, and IL-23 assays are determined using commercially available ELISA kits. In these tests, the compounds of the disclosure may inhibit IL-1β, IL-6, IL-12 and IL-23 release at a concentration of about 10 to 50 μM. The compounds are non-toxic based on resazurin measurements as described in Didiot, Hewett et al. (2013). Identification of cardiac glycoside molecules as inhibitors of c-Myc IRES-mediated translation. J Biomol Screen. 18: 407-419.

IL-1β release from PBMCs = IL-1β release from PBMCs measured by ELISA; assay type: cell-based; conditions: LPS or PHA stimulated human PBMCs
Procedure: (§6) Mononuclear cells are obtained from the blood of healthy volunteers via centrifugation and cultivated on tissue culture dishes with the test compound at various concentrations Schnyder, Bollinger et al. (1990). Inhibition of interleukin-1 release by IX 207-887. Agents Actions. 30: 350-362. Fresh human mononuclear cells were isolated on Ficoll-Paque gradient and washed several times. Fresh medium, test compound and LPS (10 μg/ml) or PHA (5 μg/ml) as stimulant are added and the monocytes incubated for a further day. The media are then removed and clarified by centrifugation at 1000×g for 10 min. Samples are stored at […] until the determinations can be made. IFNγ, IL 1β, IL 6, and IL-17 are determined using commercially available ELISA kits.

IL-6 mRNA [3] = assay: IL-6 mRNA levels in IFN-γ/LPS-stimulated THP-1 cells (RT-PCR); assay type: cell-based, human; conditions: γIFN/LPS, 24h, compounds 10 μM, RT-PCR vs β-actin
Procedure: Total RNA was isolated at t=24 h from IFN-γ/LPS-stimulated THP-1 cells exposed to compounds (10 μM) or DMSO (solvent control) for 24 […], using the RNeasy Midi Kit (Qiagen), according to the manufacturer's instructions, and eluted in DEPC-treated Milli-Q H2O. Quantity and purity of RNA were determined by absorbance at 260 and 280 nm.
For RT-PCR analysis, 1 μg of total RNA was reverse transcribed using AMV reverse transcriptase (Life Sciences Inc., St. Petersburg, Fla.), then amplified by the PCR method. Each PCR reaction also contained a set of β-actin primers as internal control. The levels of the expected PCR product were compared to the constant levels of β-actin. The size of the PCR products was compared to MspI digested pBR322 standards (New England Biolabs). PCR products were analyzed on a 4% agarose gel.
Nucleotide sequences for the oligonucleotide 5′ and 3′ primers, respectively, were: […]

IL-12 p40 mRNA = assay: mRNA stability reporter gene (luciferase) assay, IL-12 p40; assay type: cell-based; conditions: 10 μM, 24 h, n.a. = no activity
Procedure: as §1

IL-6 release from PBMCs = IL-6 release from PBMCs measured by ELISA; assay type: cell-based; conditions: LPS or PHA stimulated human PBMCs
Procedure: as §6

[4] = test system: IL-23 release from THP 1 cells; assay: IL-23 release from THP 1 cells measured by ELISA; assay type: cell-based, human; conditions: IFNγ/LPS-stimulated THP 1 cells
Procedure: as §4, §5

IFNγ release from PBMCs = IFNγ release from PBMCs measured by ELISA; assay type: cell-based; conditions: 5 μM, human PBMCs
Procedure: as §6

IL-12 = assay: LPS-induced cytokine release in mice, serum IL-12; assay type: in vivo; conditions: 100 mg/kg pre-treatment; serum 4 h post LPS; CD-1 mouse
Procedure: as §2, §3

TNF-alpha = assay: LPS-induced cytokine release in mice, serum TNF-alpha; assay type: in vivo; conditions: 100 mg/kg pre-treatment; serum 4 h post LPS; CD-1 mouse
Procedure: as §2, §3

IFN-gamma = assay: LPS-induced cytokine release in mice, serum IFN-gamma; assay type: in vivo; conditions: 100 mg/kg pre-treatment; serum 4 h post LPS; CD-1 mouse
Procedure: as §2, §3

[5] = test system: IL-6 release from THP 1 cells; assay: IL-6 release from THP 1 cells measured by ELISA; assay type: cell-based, human; conditions: IFNγ/LPS-stimulated THP 1 cells, 24 h
Procedure: as §4, §5

IL-23 p19 mRNA = assay: mRNA stability reporter gene (luciferase) assay, IL-23 p19; assay type: cell-based; conditions: 10 μM, 24 h, n.a. = no activity
Procedure: as §1

IL-17 release from PBMCs = IL-17 release from PBMCs measured by ELISA; assay type: cell-based; conditions: human PBMCs
Procedure: as §6

Row | Compound | Effect on serum IL-4 (IL-4) | IL-1β release from THP 1 cells, % control at 10 μM [2] [% control] | IL-1β release from PBMCs (% control) (IL-1β release from PBMCs; 2.5 μM) | IL-1β release from PBMCs (% control) (IL-1β release from PBMCs; 5 μM) | IL-1β release from PBMCs (% control) (IL-1β release from PBMCs; 10 μM) | IL-1β release from PBMCs (% control) (IL-1β release from PBMCs; 20 μM) | IL-6 mRNA analysis, % ctrl (IL-6 mRNA [3]) [% ctrl] | IL-12 p40 mRNA stability assay (% inhibition) (IL-12 p40 mRNA) | IL-6 release from PBMCs (% control) (IL-6 release from PBMCs; 2.5 μM) | IL-6 release from PBMCs (% control) (IL-6 release from PBMCs; 5 μM) | IL-6 release from PBMCs (% control) (IL-6 release from PBMCs; 10 μM) | IL-6 release from PBMCs (% control) (IL-6 release from PBMCs; 20 μM) | IL-23 release from THP 1 cells, % control at 10 μM [4] [% control] | IFNγ release from PBMCs, % control (24 h) (IFNγ release from PBMCs) [% control] | Effect on serum IL-12 (IL-12) | Effect on serum TNF-alpha (TNF-alpha) | Effect on LPS-induced increase in serum IFN-gamma level (IFN-gamma) | IL-6 release from THP 1 cells, % control ([5]; 10 μM) [% control] | IL-6 release from THP 1 cells, % control ([5]; 40 μM) [% control] | IL-6 release from THP 1 cells, % control ([5]; 100 μM) [% control] | also measured
1 | COc1ccc(Oc2coc3cc(O)ccc3c2=O)cc1 [Compound 1781] | trend of effect | 100 | 136 | 137 | 104 | 104 | 92 | 62 | 115 | 127 | 83 | 57 | 100 | 75 | trend of effect | trend of effect | significantly blocked | 74 | 64 | 55 | IL-6 mRNA stability assay (% inhibition) (IL-6 mRNA [1]; 10 μM, luciferase, n.a. = no activity): 84 % inhibition; IL-23 p19 mRNA stability assay (% inhibition) (IL-23 p19 mRNA): 41 % inhibition
2 | CC(=O)Oc1ccc2c(=O)c(Oc3ccc(C(=O)O)cc3)coc2c1 [Compound 276] |  |  |  |  |  |  |  |  |  |  |  |  |  | 100 |  |  |  |  |  |  | IL-17 release from PBMCs, % control (48 h) (IL-17 release from PBMCs; 2.5 μM): 79 % control; IL-17 release from PBMCs, % control (48 h) (IL-17 release from PBMCs; 5 μM): 46 % control; IL-17 release from PBMCs, % control (48 h) (IL-17 release from PBMCs; 10 μM): 57 % control
3 | COC(=O)c1ccc(Oc2coc3cc(O)ccc3c2=O)cc1 [Compound 333, methyl 4-[(7-hydroxy-4-oxo-4H-chromen-3-yl)oxy]benzoate] | trend of effect | 49 | 105 | 91 | 58 | 45 | 94 | 72 | 121 | 158 | 176 | 68 | 68 | 43 | trend of effect | trend of effect | significantly blocked | 48 | 43 | 35 | IC50 (IL-6 mRNA [1]; luciferase reporter): 2510 nM; IL-17 release from PBMCs, % control (48 h) (IL-17 release from PBMCs; 2.5 μM): 93 % control; IL-17 release from PBMCs, % control (48 h) (IL-17 release from PBMCs; 5 μM): 80 % control; IL-17 release from PBMCs, % control (48 h) (IL-17 release from PBMCs; 10 μM): 41 % control; IL-23 p19 mRNA stability assay (% inhibition) (IL-23 p19 mRNA): 76 % inhibition
4 | CC(=O)Oc1ccc2c(=O)c(Oc3ccccc3)coc2c1 [Compound 1782] |  | 100 | 123 | 115 | 109 | 89 | 93 |  | 106 | 139 | 89 | 61 | 93 |  |  |  |  | 56 | 57 | 28 | 
